# Data taken from US7999101B2, “Cationic lipids for the transfection of nucleic acids” (Politecnico Di Milano, priority 2005, dated 2011).
# Columns and labels:
# Format in all cases: cell-based
# [1] = system: transformed human kidney cells (Line 293); assay: Transfection of transformed human kidney cells (Line 293) with 16/pEGFP-N1 complexes; GFP expression and survival; settings: 16/pEGFP-N1 (5 μg)
# [2] = system: cell line PC3 (human androgen-independent prostate carcinoma); assay: Transfection of PC3 cells with plasmid pEGFP-N1; GFP expression by cytofluorimetry 48 h later, and survival; settings: for capable of giving a significant percentage of living cells expressing the GFP protein (in words) / toxicity / cell mortality with respect to 16, 22 and 17 (in words): 5 μg pEGFP-N1
# Protocol: The plasmid vector PEGFP-N1 (BD Biosciences), containing the gene encoding green fluorescent protein (GFP) has been used in the transfection tests. Due to its properties, GFP is a useful tool for monitoring “passive” gene expression: indeed, fluorescent detection in this particular system is performed by means of cytofluorimetry or by microscopy.
# Transfection tests have been performed on the cell line PC3 (human androgen-independent prostate carcinoma) with the plasmid PEGFP-N1 used in quantities equal to 2.5 and 5 μg. The general experimental outline envisaged 4 hours of transfection in reduced-serum culture medium, and in the absence of antibiotics. Upon completion of transfection, the culture medium has been replaced with normal growth medium and the evaluation of GFP expression has been performed 48 hours later by means of cytofluorimetry.
# [3] = system: normal human thyrocytes (Line 636); assay: Transfection of normal human thyrocytes (Line 636) with 16/pEGFP-N1 complexes; GFP expression and survival; settings: 16/pEGFP-N1 (5 μg)
# [4] = CR = 6, percentage with respect to control, preliminary data
# [5] = 2.5 μg pEGFP-N1, 16 and 17 at CR = 6.0, commercial agents per manufacturer, at least 3 independent experiments (Table 3)
# [6] = 2.5 μg pEGFP-N1, 16 and 17 at CR = 6.0, commercial agents per manufacturer, mean percentage with respect to control, at least 3 independent experiments (Table 3)
# [7] = 2.5 μg pEGFP-N1, charge ratio CR = 1.5
# [8] = 2.5 μg pEGFP-N1, charge ratio CR = 3.0
# [9] = 2.5 μg pEGFP-N1, charge ratio CR = 6.0 (Table 1)
# [10] = 5 μg pEGFP-N1, 16 and 17 at CR = 6.0, commercial agents per manufacturer, at least 3 independent experiments (Table 3)
# [11] = 5 μg pEGFP-N1, 16 and 17 at CR = 6.0, commercial agents per manufacturer, mean percentage with respect to control, at least 3 independent experiments (Table 3)
# [12] = 5 μg pEGFP-N1, charge ratio CR = 1.5
# [13] = 5 μg pEGFP-N1, charge ratio CR = 3.0
# [14] = 5 μg pEGFP-N1, charge ratio CR = 6.0 (Table 1)
# [15] = 5 μg pEGFP-N1, constant charge ratio CR = 6 (Table 2)
# [16] = 5 μg pEGFP-N1, constant charge ratio CR = 6, percentage with respect to control (Table 2)
smiles,measurement,setting,value
CCCCCCCCCCCCCCNc1nc(NCCS)nc(NCCCN)n1 [Compound 16],Survival,[1]; [4],86.8%
same,GFP+ living cells,"[1]; CR = 6, preliminary data",58.3%
same,Total GFP+ cells,"[1]; CR = 6, preliminary data",76.2%
same,GFP+ living cells,[2]; [5],20.5%
same,Total GFP+ cells,[2]; [5],25.4%
same,Survival,[2]; [6],81.0%
same,GFP+ living cells,[2]; [7],1.18%
same,Total GFP+ cells,[2]; [7],4.75%
same,Survival,"[2]; 2.5 μg pEGFP-N1, charge ratio CR = 1.5, percentage with respect to control",71.4%
same,GFP+ living cells,[2]; [8],4.05%
same,Total GFP+ cells,[2]; [8],7.81%
same,Survival,"[2]; 2.5 μg pEGFP-N1, charge ratio CR = 3.0, percentage with respect to control",79.8%
same,GFP+ living cells,[2]; [9],32.40%
same,Total GFP+ cells,[2]; [9],46.13%
same,Survival,"[2]; 2.5 μg pEGFP-N1, charge ratio CR = 6.0, percentage with respect to control (Table 1)",86.3%
same,GFP+ living cells,[2]; [10],41.14%
same,Total GFP+ cells,[2]; [10],57%
same,Survival,[2]; [11],58.0%
same,GFP+ living cells,[2]; [12],1.54%
same,Total GFP+ cells,[2]; [12],1.85%
same,Survival,"[2]; 5 μg pEGFP-N1, charge ratio CR = 1.5, percentage with respect to control",100%
same,GFP+ living cells,[2]; [13],10.6%
same,Total GFP+ cells,[2]; [13],12.45%
same,Survival,"[2]; 5 μg pEGFP-N1, charge ratio CR = 3.0, percentage with respect to control",96.0%
same,GFP+ living cells,[2]; [14],64.6%
same,Total GFP+ cells,[2]; [14],70.70%
same,Survival,"[2]; 5 μg pEGFP-N1, charge ratio CR = 6.0, percentage with respect to control (Table 1)",64.4%
same,cellular toxicity (in words),[2]; 2.5 and 5 μg pEGFP-N1,absence of any significant cellular toxicity
same,capacity to induce the transfection of PC3 cells (in words),"[2]; 2.5 and 5 μg pEGFP-N1, GFP expression 48 hours following transfection",significant percentage of GFP-positive cells
same,transfection efficiency compared with Lipofectamine 2000 (in words),[2]; equal amounts of plasmid DNA,comparable to that of Lipofectamine 2000 only in the presence of higher quantities of plasmid DNA
same,Survival,[3]; [4],75.3%
same,GFP+ living cells,"[3]; CR = 6, preliminary data",34.3%
same,Total GFP+ cells,"[3]; CR = 6, preliminary data",53.8%
"CCCCCCCCCCCCCCNc1nc(NCCS)nc(N2CCNCC2)n1 [Compound 18, 2-[4-(2-N-piperazinyl)-6-tetradecylamino-[1,3,5]triazin-2-ylamino]-ethanethiol]",capable of giving a significant percentage of living cells expressing the GFP protein (in words),[2],none
same,"toxicity / cell mortality with respect to 16, 22 and 17 (in words)",[2],significantly greater cell mortality
same,GFP+ living cells,[2]; [15],8.4%
same,Total GFP+ cells,[2]; [15],56.2%
same,Survival,[2]; [16],6.3%
NCCCNc1nc(NCCS)nc(NCc2ccccc2)n1 [Compound 20],capable of giving a significant percentage of living cells expressing the GFP protein (in words),[2],none
same,"toxicity / cell mortality with respect to 16, 22 and 17 (in words)",[2],did not show excessive levels of toxicity
same,GFP+ living cells,[2]; [15],0.01%
same,Total GFP+ cells,[2]; [15],0.9%
same,Survival,[2]; [16],74.0%
CCCCCCNc1nc(NCCS)nc(NCCCN)n1 [Compound 21],capable of giving a significant percentage of living cells expressing the GFP protein (in words),[2],none
same,"toxicity / cell mortality with respect to 16, 22 and 17 (in words)",[2],significantly greater cell mortality
same,GFP+ living cells,[2]; [15],0.3%
same,Total GFP+ cells,[2]; [15],2.1%
same,Survival,[2]; [16],12.8%
"CCCCCCCC/C=C\CCCCCCCC(=O)OCC(C[N+](C)(C)C)OC(=O)CCCCCCC/C=C\CCCCCCCC.[Cl-] (centres unmarked) [DOTAP, reference compound]",GFP+ living cells,[2]; [5],12.0%
same,Total GFP+ cells,[2]; [5],15.8%
same,Survival,[2]; [6],78.6%
same,GFP+ living cells,[2]; [10],21.3%
same,Total GFP+ cells,[2]; [10],23.5%
same,Survival,[2]; [11],65.8%
same,percentage of transfection with respect to compounds 16 and 17 (in words),[2]; both quantities of plasmid DNA,lower percentage of transfection
same,toxicity with respect to compounds 16 and 17 (in words),[2]; both quantities of plasmid DNA,less toxic
